Test results from patent US7368582B2, “Amidomethyl-substituted 2-(4-sulfonylamino)-3-hydroxy-3,4-dihydro-2H-chromen-6-yl compounds, a process and intermediates for their production, and pharmaceutical compositions containing them” (Solvay Pharmaceuticals GmbH, priority 2003, dated 2008).

Legend:
[1] = system: left atrium of rats' hearts; test: Functional refractory period prolongation on isolated left atria of rats' hearts in vitro; parameters: species or system rat (Sprague-Dawley); conditions: 10 μM
Procedure: 3. Investigation of the Functional Effectiveness of the Substances on the Atrium of Rats' Hearts in Vitro
In this test model it is determined to what extent the Kv 1.5-blocking substances of Formula I result in a prolongation of the functional refractory period in the left atrium of rats. The refractory period is the minimum possible elapsed time between the basic stimulus and additional stimulus in which a renewed contraction can be triggered. The extent of the prolongation of the functional refractory period is a measurement of the antiarrhythmic effectiveness of the substances according to the invention. The functional refractory period is determined by testing on the electrically stimulated preparation at what elapsed time from the preceding contraction a renewed contraction can be triggered by additional electrical stimuli.
The hearts were removed from freshly sacrificed rats (Sprague-Dawley, Charles-River, Germany). The left atria were isolated and fastened to force transducers in a temperature-controlled (30° C.), gasified (O2 95%, CO2 5%) organ bath which was filled with modified Tyrode solution (all values in mM: NaCl 137; KCl 2.7; CaCl2 1.8; MgCl2 0.8; NaHCO3 11.9; NaH2PO4 0.6; glucose 5). In order to trigger regular contractions, the preparations were electrically stimulated (rectangular pulses, pulse magnitude 3.5× threshold stimulus, pulse width 1.5 ms, frequency 1 Hz). Initially, the initial value of the functional refractory period was determined by applying extra pulses in addition to the basic stimulus, the elapsed time from the preceding basic stimulus being shortened until no further additional contraction could be triggered. Then the cumulative addition of increasing concentrations (0.1-10 μM) of the substances of Formula I took place at intervals of 20 min. each, the refractory period being determined again in each case 18 min. after the addition had taken place. Before the measurement, stock solutions of the test substances (3.2 and 0.32 mM in 100% DMSO) were prepared. In order to achieve the desired final concentrations of the substances (0.1-10 μM) in the organ bath (volume 100 ml), corresponding volumes of these stock solutions were then poured into the organ bath.
In each case the prolongation of the functional refractory period (FRP) in the left atrium of the rats' hearts in milliseconds observed after the addition of 10 μM of the respective substance of Formula I to the atrial preparations was given as characteristic variable.

ventricle of guinea pigs = test: Functional effectiveness on guinea-pig hearts in vivo (ERP, QT, QRS, systolic blood pressure); parameters: species or system guinea pig (Dunkin-Hartley); conditions: 1 min. after 10 μmole/kg i.v.; for QRS / QT / syst. blood pressure (change): guinea pigs; for syst. blood pressure (change): minus effects due to the vehicle, negative values indicate reduction; for ERP: ventricle of guinea pigs, negative values indicate shortening
Source text: 4. Investigation of the Functional Effectiveness of the Substances on Guinea-Pig Hearts in Vivo
In the test model shown below, it was shown that the substances according to the invention at most have slight undesirable proarrhythmic effects on repolarization in the ventricle. To this end, the influence of the compounds of Formula I on the effective refractory period (ERP) and other influencing variables on guinea-pig hearts in vivo were investigated. In this test model, non-selective potassium channel blockers not in accordance with the invention, which also block HERG and/or KvLQT1 channels, result in undesirable prolongation of the ERP and the QT time on an electrocardiogram (═ECG). The QT time is likewise a measurement of the repolarization in the heart. Prolongations of both the ERP and the QT time, respectively, which are due to the substances were independently interpreted as indications of the risk of the occurrence of undesirable torsade-de-pointes arrhythmias. Furthermore, the QRS interval also was determined in each case from the ECG as a measurement of the ventricular rate of spread of stimulus. Even a prolongation of the QRS interval caused by a test substance is connected with an increased risk of undesirable pro-arrhythmic side-effects. Therefore in this test model the lack of an ERP and QT time prolongation signifies a low risk, but the occurrence of a relevant ERP and QT prolongation on the other hand signifies an elevated risk of undesirable pro-arrhythmic effects. Also the lack of a prolongation of the QRS interval which is due to the substances due to the substances of Formula I investigated indicates a low risk of undesirable pro-arrhythmic side-effects, since lack of QRS prolongation indicates an undisturbed spread of stimulus in the ventricle. Conversely, a QRS prolongation, which is typically triggered by Class I antiarrhythmic drugs indicates slowing of the conduction rate and may promote the occurrence of ventricular tachycardias to ventricular fibrillation.
Male guinea pigs (Dunkin-Hartley from Charles River) were anaesthetized (ketamine 50 mg/kg, xylazine 10 mg/kg) and each of them was provided with a venous access via one jugular vein for administration of compounds of Formula I or a vehicle. A bipolar stimulation catheter was fed into the right ventricle of the guinea pigs via the other jugular vein (stimulation frequency 5 Hz). The arterial blood pressure was measured by a catheter located in the carotid artery which was connected to a Statham pressure transducer. The ECG was recorded via needle electrodes. The measured data were digitized via an analog/digital converter, recorded on a computer with suitable software (Ponemah Physiology Platform from Gould, USA) and printed out in parallel on a multichannel printer. After an equilibration period of 45 min., increasing doses of the compounds of Formula I or of the vehicle were administered intravenously (=i.v.) to the guinea pigs at 12-minute intervals. Before the first administration and in each case one minute after administration of increasing doses (0.1−max. 30 μmole/kg) of the substances of Formula I, the effective refractory period was measured. For this, after five normal stimuli in each case an additional pulse was applied and the elapsed time thereof from the preceding pulse was increased until a heart action was triggered. The observed time interval corresponds to the ERP of the ventricular myocardium.
In order to detect possible effects of the test substances on the blood pressure, in the same test model after each administration of substance the systolic and diastolic blood pressure was determined and compared with the previous blood-pressure level. The parameters were recorded automatically 1 and 8 min. after each administration of substance.
Only statistically significant effects were listed, with a t-test with a significance limit of P<0.05 being used for the statistical testing.

[2] = system: hearts of anaesthetised cats; test: Atrial and ventricular fibrillation threshold in anaesthetised cats in vivo; parameters: species or system cat; conditions: anaesthetized cats, dose 30 μmol/kg i.v.
Source text: 5. Investigation of the Functional Effectiveness of the Substances on the Hearts of Anaesthetised Cats in Vivo
In the test model shown below, it was shown that the substances according to the invention at most have a marked atrial-selective effect on the heart. After administration of the substances according to the invention, a significant increase in the atrial fibrillation threshold—i.e. the current intensity at which atrial fibrillation occurs—was observed. At the same time, on the other hand, the ventricular fibrillation threshold is influenced only minimally.
Living cats were anaesthetised with chloralose/urethane (50/300 mg/kg i.v.) and were ventilated with ambient air. Then, following thoracotomy, stimulating electrodes were attached to the right atrium and the ventricle. The atrial and ventricular fibrillation threshold was determined in known manner by administration of rectangular pulses of increasing current intensity until atrial or ventricular fibrillation occurred (for performance see in detail: Br. J. Pharmac. 17 (1961) 167; Hdb. exp. Pharmacol. XVI/3 (1975) 131; Pharmacol. Res. 25 Suppl. 2 (1992) 156). The test substances of Formula I were dissolved in propylene glycol (80%) and administered intravenously in increasing doses (5-30 μmol/kg). Atrial and ventricular fibrillation thresholds were then determined at 5-minute intervals in known manner after the addition of the respective dose. The increase in the respective fibrillation threshold due to the substances investigated was expressed in percent of the value before administration of substance, i.e. a doubling of the fibrillation threshold corresponds to an increase of 100%.

Kv 1.3-potassium channel = target: T1, Kv 1.3-potassium channel (Homo sapiens, UniProt P22001); test: In-vitro Kv 1.3-potassium channel-blocking effect (membrane potential-sensitive fluorescent dye in transfected CHO cells); type: cell-based; conditions: 10 μM test substance; CHO cells transfected with Kv 1.3; relative to reference margatoxin
T1 construct: expressed in transfected cells; host or cells: CHO cells, stably transfected with the Kv 1.3 plasmid using DMRIE-C
Source text: 2. In-Vitro Investigation of the Kv 1.3-Potassium Channel-Blocking Effect of the Substances
In this test model, known oocytes of the Chinese hamster (═CHO) are used which are stably transfected with the Kv 1.3-potassium channel. The blockade of the cell-inherent Kv 1.3-potassium channel activity in the transfected cells is accompanied by a positive shift in the membrane potential from approx. −40 mV to −30 mV, whereas in the wild-type CHO cells investigated in parallel no significant shift in the membrane potential is triggered. A change in the membrane potential is thus connected to the reduction in the Kv 1.3-potassium channel activity. By blocking the Kv 1.3-potassium channels e.g. with substances of Formula I and the resulting change in the membrane potential, an accumulation of a membrane potential-sensitive fluorescent dye in intracellular compartments of the oocytes and ultimately increasing fluorescence occurs. The change in the membrane potential of the oocytes is therefore measured indirectly via the increase in fluorescence of the membrane potential-senstive dyes.
The cells were transfected with the Kv 1.3 plasmid in known manner with a commercially obtainable transfection reagent (DMRIE-C from Gibco BRL, Germany). The successful transfection was verified by immunofluorescence and by “patch-clamp” investigations of the potassium ion current. The fluorescence measurements were performed on a Tecan Safire fluorescence reader from Tecan, Germany. In each case, the increase in the fluorescent intensity caused by the blockade of the Kv 1.3-potassium channels in the oocytes with substances of Formula I in a concentration of 10 μM was determined as characteristic variable. The increase in the fluorescent intensity was given in each case in percent (%) compared with an increase in the fluorescent intensity caused by the reference substance margatoxin. Margatoxin is known as a selective Kv 1.3-potassium channel blocker (see e.g. M. Garcia-Calvo et al., J. Biol. Chem. 268 (1993) 18866-18874).

[3] = percent of value before administration

T1 sequence (P22001 whole entry): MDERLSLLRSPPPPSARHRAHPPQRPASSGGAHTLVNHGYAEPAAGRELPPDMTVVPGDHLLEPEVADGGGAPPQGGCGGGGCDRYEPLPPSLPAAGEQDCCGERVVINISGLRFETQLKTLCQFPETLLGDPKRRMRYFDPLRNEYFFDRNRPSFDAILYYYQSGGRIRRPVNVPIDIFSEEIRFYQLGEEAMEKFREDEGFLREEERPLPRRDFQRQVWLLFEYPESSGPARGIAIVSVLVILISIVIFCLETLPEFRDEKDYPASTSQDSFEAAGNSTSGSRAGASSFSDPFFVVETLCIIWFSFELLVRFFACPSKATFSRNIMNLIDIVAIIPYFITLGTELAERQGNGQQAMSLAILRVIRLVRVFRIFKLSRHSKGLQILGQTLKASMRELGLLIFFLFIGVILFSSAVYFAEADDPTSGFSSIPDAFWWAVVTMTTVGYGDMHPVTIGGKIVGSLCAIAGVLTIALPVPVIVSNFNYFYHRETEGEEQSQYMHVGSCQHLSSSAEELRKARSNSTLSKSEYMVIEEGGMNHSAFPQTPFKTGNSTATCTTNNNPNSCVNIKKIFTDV

CCc1ccc(S(=O)(=O)NC2c3cc(CC(=O)NC4CCCc5ccccc54)ccc3OC(C)(C)C2O)cc1 (centres unmarked) [Example 1, 2-(4-{[(4-Ethylphenyl)sulfonyl]amino}-3-hydroxy-2,2-dimethyl-3,4-dihydro-2H-chromen-6-yl)-N-1,2,3,4-tetrahydronaphth-1-yl acetamide]
FRP prolongation [1]: 15 ms | QRS (ventricle of guinea pigs): n.s. | QT (ventricle of guinea pigs): n.s. | syst. blood pressure (change) (ventricle of guinea pigs): n.s. | ERP (ventricle of guinea pigs): n.s. | Selectivity factor (AFT:VFT) [2]: 3 | AFT (increase in the atrial fibrillation threshold) [2, 3]: 66% | VFT (increase in the ventricular fibrillation threshold) [2, 3]: 22%

CCc1ccc(S(=O)(=O)N[C@@H]2c3cc(CC(=O)NCc4ccccc4)ccc3OC(C)(C)[C@H]2O)cc1 [Example 11]
Increase in the fluorescent intensity (% margatoxin) (Kv 1.3-potassium channel): 99 % margatoxin | FRP prolongation [1]: 24 ms | QRS (ventricle of guinea pigs): n.s. | QT (ventricle of guinea pigs): n.s. | syst. blood pressure (change) (ventricle of guinea pigs): n.s. | ERP (ventricle of guinea pigs): n.s.
